Results on twelve compounds are retold here after patent US9062056B2, “Aza-benzimidazolone Chymase inhibitors” (Boehringer Ingelheim International GmbH, priority 2008, dated 2015).

The assay has as its target T1, Chymase (Homo sapiens, UniProt P23946).
T1 sequence (P23946 22-247): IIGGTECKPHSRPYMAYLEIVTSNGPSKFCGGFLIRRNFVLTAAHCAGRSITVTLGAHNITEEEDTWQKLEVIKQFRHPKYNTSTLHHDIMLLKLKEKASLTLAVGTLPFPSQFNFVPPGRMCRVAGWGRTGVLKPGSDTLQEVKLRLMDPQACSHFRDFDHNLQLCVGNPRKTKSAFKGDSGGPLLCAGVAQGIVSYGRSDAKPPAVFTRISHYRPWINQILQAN
Briefly: In vitro assay for inhibition of Chymase (rhodamine 110 peptide substrate, fluorescence). The note with it: 500 pM chymase, 100 nM substrate, 100 μM TCEP, 1% DMSO, 28° C., 1 hour. The assay is classed as biochemical. On the procedure: IN VITRO ASSAY FOR INHIBITION OF CHYMASE
Chymase assays were performed in a total volume of 15 μL in Corning black opaque 384-well microtiter plates with a non-binding surface (Corning, N.Y.). The assay buffer was comprised of 20 mM Tris HCl pH 8.0, 50 mM NaCl, 0.01% CHAPS. The test compounds were serially diluted 3-fold with neat DMSO in a 96-well polypropylene plate from a 10 mM DMSO stock to give the 10 point dose response curve. 3 μL of the resulting DMSO solution were transferred to a 384-well polypropylene plate in duplicate, and 37 μL of assay buffer was added. Chymase was added to the assay plate in 3 uL of assay buffer followed by 2 uL of the appropriate compound dilution using a PlateMate Plus (Matrix Technologies Corp., Hudson, N.H.). The reaction was initiated by the addition of 10 uL rhodamine 110, bis-(succinoyl-L-alanyl-L-alanyl-L-prolyl-L-phenylalanylamide) (American Peptides, Sunnyvale, Calif.) in assay buffer containing 150 μM tris(2-carboxyethyl)phosphine (TCEP, Pierce Chemical, Rockford, Ill.) using a Multidrop (Thermo Electron Corp., Waltham, Mass.). Final assay concentrations were 500 pM chymase, 100 nM substrate, 100 μM TCEP, and 1% DMSO. The plates were incubated at 28° C. and 80% humidity for 1 hour, at which time the fluorescence was read on a Viewlux 1430 Microplate Imager (Perkin Elmer Life Sciences, Boston, Mass.) with 485 nm excitation, 530 nm emission, and a fluorescein dichroic mirror. The percentage of control values were calculated relative to assay blanks containing complete reaction minus chymase and a 100% control containing assay buffer with 1% DMSO in place of compound. IC50 values were obtained by fitting the data using XLFit4 (IDBS Software).
Regarding `Cc1cc(C)c2c(Cn3c(=O)n([C@H](CC(=O)O)c4ccc(Cl)cc4)c4nc(C#N)ccc43)cn(C)c2c1` [(R)-3-(4-Chloro-phenyl)-3-[5-cyano-2-oxo-1-(1,4,6-trimethyl-1H-indol-3-ylmethyl)-1,2-dihydro-imidazo[4,5-b]pyridin-3-yl]-propionic acid], the IC50 turned out to be 0.2 nM.

In turn, `CCC[C@@H](CC(=O)NS(C)(=O)=O)n1c(=O)n(Cc2cn(C)c3cccc(C)c23)c2cccnc21` [N-{(S)-3-[1-(1,4-Dimethyl-1H-indol-3-ylmethyl)-2-oxo-1,2-dihydro-imidazo[4,5-b]pyridin-3-yl]-hexanoyl}-methanesulfonamide] displayed an IC50 of 11.8 nM. In the case of `COc1ccc2c(n1)n([C@H](CC(=O)O)c1ccccc1)c(=O)n2Cc1cn(C)c2cc(C)cc(C)c12` [(R)-3-[5-Methoxy-2-oxo-1-(1,4,6-trimethyl-1H-indol-3-ylmethyl)-1,2-dihydro-imidazo[4,5-b]pyridin-3-yl]-3-phenyl-propionic acid] it was 0.605 nM; in that of `Cc1cccc2c1c(Cn1c(=O)n([C@H](CC(=O)O)c3ccc(F)cc3)c3nc(C#N)ccc31)cn2C` [(R)-3-[5-Cyano-1-(1,4-dimethyl-1H-indol-3-ylmethyl)-2-oxo-1,2-dihydro-imidazo[4,5-b]pyridin-3-yl]-3-(4-fluoro-phenyl)-propionic acid], 0.245 nM; in that of `Cc1cccc2c1c(Cn1c(=O)n([C@H](CC(=O)O)c3ccccc3)c3nc(C#N)ccc31)cn2C` [(R)-3-[5-Cyano-1-(1,4-dimethyl-1H-indol-3-ylmethyl)-2-oxo-1,2-dihydro-imidazo[4,5-b]pyridin-3-yl]-3-phenyl-propionic acid], 1.5 nM. The compound `CCCC(CC(=O)O)n1c(=O)n(Cc2cn(C)c3cc(C)cc(C)c23)c2ccc(C#N)nc21` (stereo not drawn) [3-[5-Cyano-2-oxo-1-(1,4,6-trimethyl-1H-indol-3-ylmethyl)-1,2-dihydro-imidazo[4,5-b]pyridin-3-yl]-hexanoic acid] came in with an IC50 of 1.06 nM. Under `CCC[C@@H](CC(=O)O)n1c(=O)n(Cc2cn(C)c3cccc(C)c23)c2cnccc21` [(S)-3-[3-(1,4-Dimethyl-1H-indol-3-ylmethyl)-2-oxo-2,3-dihydro-imidazo[4,5-c]pyridin-1-yl]-hexanoic acid] stands 18.9 nM; under `COc1ccc2c(n1)n([C@H](CC(=O)O)c1ccccc1)c(=O)n2Cc1cn(C)c2cccc(C)c12` [(R)-3-[1-(1,4-Dimethyl-1H-indol-3-ylmethyl)-5-methoxy-2-oxo-1,2-dihydro-imidazo[4,5-b]pyridin-3-yl]-3-phenyl-propionic acid], 2.05 nM.

Take `Cc1cc(C)c2c(Cn3c(=O)n([C@H](CC(=O)O)c4ccccc4)c4ccncc43)nsc2c1` [(R)-3-[3-(4,6-Dimethyl-benzo[d]isothiazol-3-ylmethyl)-2-oxo-2,3-dihydro-imidazo[4,5-c]pyridin-1-yl]-3-phenyl-propionic acid]: the half-maximal inhibitory concentration (IC50) is 11.2 nM. Under `CCC[C@@H](CC(=O)O)n1c(=O)n(Cc2cn(C)c3cccc(C)c23)c2cc(C)cnc21` [(S)-3-[1-(1,4-Dimethyl-1H-indol-3-ylmethyl)-6-methyl-2-oxo-1,2-dihydro-imidazo[4,5-b]pyridin-3-yl]-hexanoic acid] stands 3.46 nM. In the case of `Cc1cc(C)c2c(Cn3c(=O)n(CC4(C(=O)O)CCCCC4)c4nc(C)ccc43)nsc2c1` [1-[1-(4,6-Dimethyl-1,2-benzisothiazol-3-ylmethyl)-5-methyl-2-oxo-1,2-dihydro-imidazo[4,5-b]pyridin-3-ylmethyl]-cyclohexanecarboxylic acid], the midpoint of inhibition, the IC50, lay at 1.45 nM. In the case of `CCC[C@@H](CC(=O)O)n1c(=O)n(Cc2cn(C)c3cc(C)cc(C)c23)c2ccc(C)nc21` [(S)-3-[5-Methyl-2-oxo-1-(1,4,6-trimethyl-1H-indol-3-ylmethyl)-1,2-dihydro-imidazo[4,5-b]pyridin-3-yl]-hexanoic acid] it was 0.81 nM.

In general, IC50 refers to the concentration that inhibits the measured activity by half. A lower IC50 goes with greater potency in that assay.
